Measured values from ChEMBL document CHEMBL3585293, “Design, antiviral and cytostatic properties of isoxazolidine-containing amonafide analogues” (Bioorg Med Chem, 2015).

Each compound was assayed on Vaccinia virus (assay: Antiviral activity against Vaccinia virus infected in HEL cells assessed as reduction of virus-induced cytopathogenicity). Settings: Orthopoxvirus vaccinia.
Format: functional, organism-based

| SMILES | EC50 |
| --- | --- |
| CCOP(=O)(OCC)[C@@H]1C[C@H](C(=O)Nc2cc3c4c(cccc4c2)C(=O)N(CCN(C)C)C3=O)ON1C (racemic) | > 45 µM |
| CCOP(=O)(OCC)[C@@H]1C[C@@H](C(=O)Nc2cc3c4c(cccc4c2)C(=O)N(CCN(C)C)C3=O)ON1C (racemic) | > 45 µM |
| CCOP(=O)(OCC)[C@@H]1C[C@H](C(=O)Nc2cc3c4c(cccc4c2)C(=O)N(CCN2CCCC2)C3=O)ON1C (racemic) | 50 µM |
| CCOP(=O)(OCC)[C@@H]1C[C@@H](C(=O)Nc2cc3c4c(cccc4c2)C(=O)N(CCN2CCCC2)C3=O)ON1C (relative stereo) | > 45 µM |
| Nc1nc2c(ncn2COCCO)c(=O)[nH]1 [ACYCLOVIR] | > 250 µM |
| O=c1[nH]c(=O)n([C@H]2C[C@H](O)[C@@H](CO)O2)cc1/C=C/Br [BRIVUDINE] | 17 µM |
| Nc1ccn(C[C@@H](CO)OCP(=O)(O)O)c(=O)n1 [CIDOFOVIR] | 22 µM |
| Nc1nc2c(ncn2COC(CO)CO)c(=O)[nH]1 [GANCICLOVIR] | > 100 µM |
